{"source": "paper PMC7723321", "about": "(Nature chemical biology, 2020)", "key": {"HIV-1 92UG037.8 Env": {"biological_target": "HIV-1 92UG037.8 Env (Human immunodeficiency virus type 1, UniProt Q70200)", "type": "cell-based"}, "HIV-1 Env pseudoviruses": {"system": "HIV-1 Env pseudoviruses", "type": "cell-based"}, "[1]": {"system": "Envs from HIV-1 primary isolates of clade A, B, C and AG", "type": "cell-based"}, "2F5 Fab": {"system": "2F5 Fab", "type": "binding"}, "SIVmac251.30 Env": {"system": "SIVmac251.30 Env", "type": "cell-based, SIV"}}}
{"smiles": "Cc1cc(N)c2ccccc2n1", "note": "[4-aminoquinaldine]", "values": [{"measurement": "inhibition activity/potency in the HIV-1 Env cell-cell fusion assay (in words)", "setting": "HIV-1 92UG037.8 Env", "value": "no activity"}]}
{"smiles": "Cc1cc(N)c2ccccc2[n+]1CCCCCCCCCC[n+]1c(C)cc(N)c2ccccc21", "note": "[dequalinium, quinolinium,1,1’-(1,10-decanediyl)-bis(4-amino-2-methyldiiodide)]", "values": [{"measurement": "inhibition of HIV-1 infectivity versus MuLV negative control", "setting": "HIV-1 Env pseudoviruses", "value": "much greater inhibition"}, {"measurement": "inhibition of cell-cell fusion mediated by Envs of multiple primary HIV-1 isolates", "setting": "[1]", "value": "specifically inhibited"}, {"measurement": "cytotoxicity in TZM.bl cells", "setting": "TZM.bl cells", "value": "more cytotoxicity than in the cell-cell fusion assay"}, {"measurement": "binding to 2F5 Fab by SPR (in words)", "setting": "2F5 Fab", "value": "no binding"}, {"measurement": "inhibition of cell-cell fusion mediated by SIV Env, high expression level", "setting": "SIVmac251.30 Env", "value": "resistant"}, {"measurement": "inhibition of cell-cell fusion mediated by SIV Env, low expression level", "setting": "SIVmac251.30 Env", "value": "inhibited"}, {"measurement": "cytotoxicity by an assay measuring ATP concentration", "setting": "293T cells", "value": "minimal level of cytotoxicity"}]}
